pKi: −log10 of the molar value.
Legend:
Assay type in all cases: biochemical
c-Met = c-Met (Homo sapiens, UniProt P08581); assay: c-Met Inhibition Assay, coupled enzyme system; details: enzyme inhibition data (Ki), Table 11
Procedure, shortened: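 Pyruvate kinase/lactate dehydrogenase-coupled NADH assay in HEPES pH 7.5 with 80 nM c-Met, 200 μM ATP and 10 μM polyGluTyr at 30° C. Compound (0.006–12.5 μM final, 12-point) preincubated 10 min before ATP start; rates over 10 min gave Ki.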

JAK3 = molecular target: T1, JAK3 (Homo sapiens, UniProt P52333); assay: JAK3 Inhibition Assay, 33P incorporation; details: enzyme inhibition data (Ki), Table 11
T1 sequence (P52333 1-1124): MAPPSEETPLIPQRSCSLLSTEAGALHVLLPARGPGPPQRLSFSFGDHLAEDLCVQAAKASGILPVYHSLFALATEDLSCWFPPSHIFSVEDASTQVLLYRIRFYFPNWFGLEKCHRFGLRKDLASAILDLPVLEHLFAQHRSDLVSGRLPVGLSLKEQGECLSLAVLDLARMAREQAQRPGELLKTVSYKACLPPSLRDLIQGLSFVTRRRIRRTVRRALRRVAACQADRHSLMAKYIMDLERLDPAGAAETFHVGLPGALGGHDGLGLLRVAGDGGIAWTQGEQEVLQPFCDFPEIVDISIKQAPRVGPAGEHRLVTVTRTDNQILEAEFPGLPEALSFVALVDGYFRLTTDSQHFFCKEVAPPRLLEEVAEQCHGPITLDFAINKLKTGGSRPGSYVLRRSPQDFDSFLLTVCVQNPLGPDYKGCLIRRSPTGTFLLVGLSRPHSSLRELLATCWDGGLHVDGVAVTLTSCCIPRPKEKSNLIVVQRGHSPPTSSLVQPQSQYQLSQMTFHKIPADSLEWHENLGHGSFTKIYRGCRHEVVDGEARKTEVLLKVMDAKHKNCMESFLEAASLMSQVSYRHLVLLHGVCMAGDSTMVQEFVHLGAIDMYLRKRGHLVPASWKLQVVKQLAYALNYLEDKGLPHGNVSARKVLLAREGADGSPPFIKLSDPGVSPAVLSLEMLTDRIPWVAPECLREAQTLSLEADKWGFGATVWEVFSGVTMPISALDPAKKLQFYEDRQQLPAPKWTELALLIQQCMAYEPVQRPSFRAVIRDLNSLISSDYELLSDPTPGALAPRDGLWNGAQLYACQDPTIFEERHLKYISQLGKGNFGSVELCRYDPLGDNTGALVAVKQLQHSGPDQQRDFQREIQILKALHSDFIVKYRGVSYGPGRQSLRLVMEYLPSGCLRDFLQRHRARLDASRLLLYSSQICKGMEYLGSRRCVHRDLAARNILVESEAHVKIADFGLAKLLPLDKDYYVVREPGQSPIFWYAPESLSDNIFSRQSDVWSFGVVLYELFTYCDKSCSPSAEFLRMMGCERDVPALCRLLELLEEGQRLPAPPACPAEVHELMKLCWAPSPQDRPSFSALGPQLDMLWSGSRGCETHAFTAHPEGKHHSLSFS
Procedure, shortened: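 Recombinant JAK3 at 1 nM in HEPES pH 7.4 buffer with 10 mM MgCl2, 1 mM DTT and 0.01% BSA. Substrates were 5 μM ATP (200 uCi/μmole) and 1 μM poly(Glu)4Tyr, reacted 20 min at 25 °C. Stopped with TCA, and 33P incorporation counted on glass fiber filters.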

Itk = molecular target: T2, Itk (Homo sapiens, UniProt Q08881); assay: ITK Inhibition Assay (Radiometric), radioactive-phosphate incorporation; details: enzyme inhibition data (Ki), Table 11; radiometric or UV assay not stated
T2 sequence (Q08881 1-620): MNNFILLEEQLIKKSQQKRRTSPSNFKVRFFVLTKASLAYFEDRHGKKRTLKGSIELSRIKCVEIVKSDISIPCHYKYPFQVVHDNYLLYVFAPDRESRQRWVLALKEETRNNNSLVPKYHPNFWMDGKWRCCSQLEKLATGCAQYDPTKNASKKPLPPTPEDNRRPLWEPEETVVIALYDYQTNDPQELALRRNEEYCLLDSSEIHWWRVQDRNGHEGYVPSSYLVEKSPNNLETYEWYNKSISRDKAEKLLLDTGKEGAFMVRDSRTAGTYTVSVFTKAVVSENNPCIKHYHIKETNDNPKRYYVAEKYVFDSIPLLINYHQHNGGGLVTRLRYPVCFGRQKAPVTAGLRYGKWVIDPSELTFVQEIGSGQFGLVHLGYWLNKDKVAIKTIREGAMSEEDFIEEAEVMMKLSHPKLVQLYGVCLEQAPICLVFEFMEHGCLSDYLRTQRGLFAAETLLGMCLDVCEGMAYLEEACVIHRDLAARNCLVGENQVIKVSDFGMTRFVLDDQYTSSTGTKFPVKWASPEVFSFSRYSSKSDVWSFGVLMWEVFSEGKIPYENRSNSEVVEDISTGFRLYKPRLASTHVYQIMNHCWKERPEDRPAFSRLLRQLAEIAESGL
Procedure, shortened: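 Radiometric 33P incorporation into SAM68 peptide (D332-443) with filter capture and scintillation counting; 10 min pre-incubation then 10 min reaction at 25° C. IC50 format: 30 nM Itk, 15 μM ATP, 2 μM peptide, HEPES pH 7.5. Ki(app) format: 50 nM Itk, 7.5 μM ATP, 3 μM peptide, MOPS pH 7.0.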

Chain of c-Met (P08581 25-1390): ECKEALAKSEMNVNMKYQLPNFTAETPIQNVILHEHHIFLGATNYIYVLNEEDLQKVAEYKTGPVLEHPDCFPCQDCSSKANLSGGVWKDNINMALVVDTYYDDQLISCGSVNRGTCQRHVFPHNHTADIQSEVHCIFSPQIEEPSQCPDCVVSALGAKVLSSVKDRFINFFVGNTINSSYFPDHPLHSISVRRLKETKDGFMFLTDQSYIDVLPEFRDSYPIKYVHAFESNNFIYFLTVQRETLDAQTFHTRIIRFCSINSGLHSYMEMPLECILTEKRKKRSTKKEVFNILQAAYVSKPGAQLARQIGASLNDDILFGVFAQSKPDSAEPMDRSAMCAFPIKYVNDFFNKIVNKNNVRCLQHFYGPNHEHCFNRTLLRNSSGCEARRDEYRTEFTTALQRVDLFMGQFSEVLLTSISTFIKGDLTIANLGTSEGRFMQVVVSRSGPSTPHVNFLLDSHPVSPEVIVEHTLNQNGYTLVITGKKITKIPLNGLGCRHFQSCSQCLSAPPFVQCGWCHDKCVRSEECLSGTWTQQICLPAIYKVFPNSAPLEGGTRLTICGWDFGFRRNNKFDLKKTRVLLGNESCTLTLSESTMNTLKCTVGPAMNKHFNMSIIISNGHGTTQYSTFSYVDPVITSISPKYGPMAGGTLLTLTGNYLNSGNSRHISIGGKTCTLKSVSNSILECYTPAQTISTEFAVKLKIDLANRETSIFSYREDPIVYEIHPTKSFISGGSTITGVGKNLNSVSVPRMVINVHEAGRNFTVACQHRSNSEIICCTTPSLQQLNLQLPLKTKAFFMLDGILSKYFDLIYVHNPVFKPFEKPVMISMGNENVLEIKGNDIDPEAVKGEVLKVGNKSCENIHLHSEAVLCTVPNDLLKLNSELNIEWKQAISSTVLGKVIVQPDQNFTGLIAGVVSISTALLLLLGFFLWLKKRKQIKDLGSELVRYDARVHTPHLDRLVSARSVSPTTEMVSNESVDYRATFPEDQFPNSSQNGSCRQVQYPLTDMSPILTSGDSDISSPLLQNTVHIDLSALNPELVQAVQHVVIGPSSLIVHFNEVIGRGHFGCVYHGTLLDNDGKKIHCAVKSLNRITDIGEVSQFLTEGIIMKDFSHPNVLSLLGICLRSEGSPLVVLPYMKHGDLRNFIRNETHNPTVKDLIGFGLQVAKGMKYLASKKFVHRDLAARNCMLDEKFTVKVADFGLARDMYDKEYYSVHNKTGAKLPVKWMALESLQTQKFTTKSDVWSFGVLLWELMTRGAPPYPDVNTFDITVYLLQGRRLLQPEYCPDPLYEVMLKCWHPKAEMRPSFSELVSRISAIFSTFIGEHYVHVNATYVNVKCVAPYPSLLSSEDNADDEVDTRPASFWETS

Structure (SMILES)	pKi (c-Met)	pKi (JAK3)	pKi (Itk)
CN(C)CCNc1cc(-c2cnc3c(-c4ccccn4)c(N)nn3c2)ccn1 [Compound V-246]	> 6.30	< 5.30	5.30 to 6.30
Cc1cnc2c(-c3cc(NC4CCNC4)ncn3)c(N)nn2c1 (stereo not drawn) [Compound V-337]	> 6.30	> 6.30	> 6.30
Cc1cnc2c(-c3cc(N4CCC[C@H]4CO)ncn3)c(N)nn2c1 [Compound V-306]	> 6.30	5.30 to 6.30	5.30 to 6.30
Nc1nn2cc(-c3ccncn3)cnc2c1C(=O)N1CCC(O)C1 (stereo not drawn) [Compound V-44]	5.30 to 6.30	< 5.30	5.30 to 6.30
CN(C)CCN(Cc1ccccc1)C(=O)c1c(N)nn2cc(-c3ccncn3)cnc12 [Compound V-35]	5.30 to 6.30	< 5.30	5.30 to 6.30
Cc1cnc2c(-c3cc(N4CCC(C(N)=O)CC4)ncn3)c(N)nn2c1 [Compound V-341]	5.30 to 6.30	5.30 to 6.30	5.30 to 6.30
Cc1cnc2c(-c3cc(NC4CCCC4)ncn3)c(N)nn2c1 [Compound V-332]	> 6.30	5.30 to 6.30	> 6.30
Nc1nn2cc(CCc3ccccc3)cnc2c1-c1ccccn1 [Compound V-213]	5.30 to 6.30	< 5.30	5.30 to 6.30
CCOC(=O)N1CCN(c2ccc(-c3cnc4c(-c5ccccn5)c(N)nn4c3)cn2)CC1 [Compound V-174]	5.30 to 6.30	< 5.30	5.30 to 6.30
Nc1nn2cc(-c3ccc(C(=O)N4CCC(N5CCCC5)CC4)cn3)cnc2c1-c1ccccn1 [Compound V-84]	> 6.30	5.30 to 6.30	> 6.30
CCCCN(CCN)C(=O)c1ccc(-c2cnc3c(-c4ccccn4)c(N)nn3c2)nc1 [Compound V-80]	> 6.30	< 5.30	> 6.30
CC(C)CN(C)C(=O)c1cccc(-c2cnc3c(-c4ccccn4)c(N)nn3c2)n1 [Compound V-125]	> 6.30	< 5.30	5.30 to 6.30
CCOC(=O)C1CCN(c2cc(-c3cnc4c(-c5ccccn5)c(N)nn4c3)ccn2)CC1 [Compound V-253]	5.30 to 6.30	< 5.30	5.30 to 6.30
Nc1nn2cc(CCCN3CCCCC3)cnc2c1-c1ccccn1 [Compound V-312]	5.30 to 6.30	< 5.30	5.30 to 6.30
CC(C)N1CCN(CCCc2cnc3c(-c4ccccn4)c(N)nn3c2)CC1 [Compound V-331]	5.30 to 6.30	< 5.30	5.30 to 6.30
Nc1nn2cc(-c3ccncn3)cnc2c1C(=O)N1CCCC1 [Compound V-45]	5.30 to 6.30	< 5.30	5.30 to 6.30
Nc1nn2cc(-c3cccnc3N3CC[C@H](CN4CCCC4)C3)cnc2c1-c1ccccn1 [Compound V-261]	5.30 to 6.30	< 5.30	5.30 to 6.30
Cc1cnc2c(-c3cc(N[C@@H]4CCC[C@H]4OCc4ccccc4)ncn3)c(N)nn2c1 [Compound V-336]	> 6.30	5.30 to 6.30	5.30 to 6.30
Nc1nn2cc(-c3ccc(C(=O)N4CCC(N)CC4)cn3)cnc2c1-c1ccccn1 [Compound V-69]	> 6.30	5.30 to 6.30	> 6.30
Nc1nn2cc(-c3cccnc3N3CCOCC3)cnc2c1-c1ccccn1 [Compound V-257]	5.30 to 6.30	< 5.30	5.30 to 6.30

Structure (SMILES)	pKi (c-Met)	pKi (JAK3)	pKi (Itk)
Nc1nn2cc(-c3ccncc3)cnc2c1-c1ccccc1 [Compound V-187]	> 6.30	< 5.30	5.30 to 6.30
CCN(Cc1ccccn1)c1ncccc1-c1cnc2c(-c3ccccn3)c(N)nn2c1 [Compound V-263]	5.30 to 6.30	< 5.30	5.30 to 6.30
Nc1nn2cc(CCCO)cnc2c1-c1ccccn1 [Compound V-310]	5.30 to 6.30	< 5.30	5.30 to 6.30
Nc1nn2cc(-c3ccccc3F)cnc2c1-c1ccccn1 [Compound V-13]	5.30 to 6.30	< 5.30	5.30 to 6.30
CCC(CO)Nc1cc(-c2c(N)nn3cc(C)cnc23)ncn1 (stereo not drawn) [Compound V-288]	> 6.30	5.30 to 6.30	> 6.30
Cc1cnc2c(-c3cc(N[C@@H]4CCOC4)ncn3)c(N)nn2c1 [Compound V-335]	> 6.30	5.30 to 6.30	5.30 to 6.30
CCCCNC(=O)c1ccc(-c2cnc3c(-c4ccccn4)c(N)nn3c2)nc1 [Compound V-77]	5.30 to 6.30	< 5.30	5.30 to 6.30
Nc1nn2cc(-c3ccncn3)cnc2c1C(=O)O [Compound V-28]	5.30 to 6.30	< 5.30	5.30 to 6.30
Nc1nn2cc(-c3ccc(C(=O)N4CCC[C@@H]4CN4CCCC4)cn3)cnc2c1-c1ccccn1 [Compound V-153]	> 6.30	5.30 to 6.30	> 6.30
Cc1cnc2c(-c3cc(NCc4cc(Cl)ccc4Cl)ncn3)c(N)nn2c1 [Compound V-275]	5.30 to 6.30	< 5.30	5.30 to 6.30
CN(CCc1ccccn1)C(=O)c1ccc(-c2cnc3c(-c4ccccn4)c(N)nn3c2)nc1 [Compound V-60]	> 6.30	5.30 to 6.30	5.30 to 6.30
Nc1nn2cc(-c3ccnc(N4CCN(c5cnccn5)CC4)c3)cnc2c1-c1ccccn1 [Compound V-255]	5.30 to 6.30	< 5.30	5.30 to 6.30
CCN(CC)CCN(C)C(=O)c1ccc(-c2cnc3c(-c4ccccn4)c(N)nn3c2)nc1 [Compound V-88]	> 6.30	5.30 to 6.30	> 6.30
Nc1nn2cc(-c3ccncn3)cnc2c1C(=O)N[C@H](CO)c1ccccc1 [Compound V-46]	5.30 to 6.30	< 5.30	5.30 to 6.30
Nc1nn2cc(-c3ccnc(N4CCC(N5CCCC5)CC4)c3)cnc2c1-c1ccccn1 [Compound V-256]	5.30 to 6.30	< 5.30	5.30 to 6.30
Nc1nn2cc(-c3cccnc3N3CCCC3)cnc2c1-c1ccccn1 [Compound V-258]	5.30 to 6.30	< 5.30	5.30 to 6.30
Nc1nn2cc(-c3ccc(N4CCN(Cc5ccncc5)CC4)nc3)cnc2c1-c1ccccn1 [Compound V-163]	> 6.30	< 5.30	5.30 to 6.30
CN1CCN(c2ncccc2-c2cnc3c(-c4ccccn4)c(N)nn3c2)CC1 [Compound V-268]	5.30 to 6.30	< 5.30	5.30 to 6.30
Nc1nn2cc(-c3cccc(C(=O)NCCF)n3)cnc2c1-c1ccccn1 [Compound V-107]	> 6.30	5.30 to 6.30	5.30 to 6.30
Nc1nn2cc(C(=O)NCc3ccccc3)cnc2c1-c1ccccn1 [Compound V-207]	5.30 to 6.30	< 5.30	5.30 to 6.30

Reference: patent publication US7528138B2, “Pyrazolo[1,5-a]pyrimidines useful as inhibitors of protein kinases” (Vertex Pharmaceuticals Incorporated, priority 2004, dated 2009)
